Data on 22 molecules can be found in US20050282840A1, “Methods of modulating neurotrophin-mediated activity” (PainCeptor Pharma Corporation, priority 2004, published 2005).

Test [1] relates to p75^NTR receptors (PC12 cells). Put plainly: Basic screening assay: binding of 125I-NGF to PC12 cells. The conditions noted are these: Table 4; test compound 50 μM; 0.5 nM 125I-NGF; PC12 cells; 2 h at 4° C.; specific binding as percent of control. Summed up: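 Inhibition of 0.5 nM 125I-NGF binding to p75NTR on PC12 cells was measured with compounds at 50 μM during 2 h rotation at 4° C. Cell-bound radioactivity from glycerol-cushion centrifugation was gamma-counted, giving NSB-corrected binding as % of control specific binding.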

The target in test [2] is T1, p75^NTR receptors (PC12 cells) (Rattus norvegicus, UniProt P07174).
T1 construct: endogenous in cells; host or cells: PC12 cells
T1 sequence (P07174 30-425): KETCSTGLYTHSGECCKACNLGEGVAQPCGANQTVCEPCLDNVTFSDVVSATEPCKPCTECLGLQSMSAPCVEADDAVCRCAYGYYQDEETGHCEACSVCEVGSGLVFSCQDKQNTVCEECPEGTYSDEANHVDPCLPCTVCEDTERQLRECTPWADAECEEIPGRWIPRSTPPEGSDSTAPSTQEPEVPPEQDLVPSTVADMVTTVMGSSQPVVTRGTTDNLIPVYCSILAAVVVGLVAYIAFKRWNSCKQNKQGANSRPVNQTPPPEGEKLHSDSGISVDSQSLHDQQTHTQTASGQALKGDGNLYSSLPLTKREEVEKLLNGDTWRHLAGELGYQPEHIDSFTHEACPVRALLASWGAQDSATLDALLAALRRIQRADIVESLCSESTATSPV
T1 sequence (P23560 129-247 partner): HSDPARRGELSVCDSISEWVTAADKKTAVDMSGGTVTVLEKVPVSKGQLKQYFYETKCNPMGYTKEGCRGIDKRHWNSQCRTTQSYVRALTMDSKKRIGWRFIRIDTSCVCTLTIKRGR
Put plainly: Basic screening assay: binding of 125I-BDNF to PC12 cells. The conditions noted are these: read-out: BDNF Activity % Maximal Binding. A digest of the protocol: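 4×10^6 PC12 cells incubated 2 h at 4° C, rotating, with 0.5 nM ^125I-BDNF (final) and compound at 50 μM, in duplicate or more. Bound ligand separated through 10% glycerol by centrifugation and counted by gamma counter; specific binding is Bmax minus NSB; inhibitors followed up for EC50.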

Setting [3] is: Table 4, test compound 50 μM, 0.5 nM 125I-BDNF, PC12 cells, 2 h at 4° C., specific binding as percent of control.

SMILES strings stand for the structures. Read-outs that look alike come from different tables or passages of the source.

In the case of `CCOC(=O)CN1C(=O)S/C(=C/c2ccc(-c3ccc(C(=O)O)cc3C)o2)C1=O` [Compound 121, 4-[5-(3-Ethoxycarbonylmethyl-2,4-dioxo-thiazolidin-5-ylidenemethyl)furan-2-yl]-3-methylbenzoic acid], the “NGF Activity % Maximal Binding” value in test [1] is recorded as “* (50 < *)”. For the same molecule, the activity at 50 µM in test [2] (setting [3]) is greater than 50%.

For the molecule `O=C1NC(=O)N(Cc2ccccc2)C(=O)/C1=C/c1ccc(-c2cccc(C(=O)O)c2)o1` [Compound 122, 3-[5-(1-benzyl-2,4,6-trioxo-tetrahydro-pyrimidin-5-ylidenemethyl)furan-2-yl]benzoic acid], the “NGF Activity % Maximal Binding” value in test [1] is listed as “* (50 < *)”. The activity at 50 µM in test [2] was greater than 50%.

As to `COc1ccc([N+](=O)[O-])cc1-c1ccc(/C=C2/NC(=O)N(c3ccccc3)C2=O)o1` [Compound 123, 5-[5-(2-Methoxy-5-nitrophenyl)furan-2-ylmethylene]-3-phenyl-imidazolidine-2,4-dione], in test [1], the “NGF Activity % Maximal Binding” value is listed as “* (50 < *)”. Moreover, the activity at 50 µM in test [2] (setting [3]) was greater than 50%.

With `Cc1cc(C)cc(N2C(=O)/C(=C/c3ccc(-c4ccc(C(=O)O)cc4)o3)C(=O)NC2=S)c1` [Compound 124, 4-{5-[1-(3,5-Dimethylphenyl)-4,6-dioxo-2-thioxo-tetrahydro-pyrimidin-5-ylidenemethyl]furan-2-yl}benzoic acid], the “NGF Activity % Maximal Binding” value in test [1] is reported as “* (50 < *)”. In test [2], the activity at 50 µM was greater than 50%.

Consider `O=C(O)c1ccc(-c2ccc(/C=C3/NC(=O)N(Cc4ccc(F)cc4)C3=O)o2)cc1` [Compound 126, 4-{5-[1-(4-Fluorobenzyl)-2,5-dioxo-imidazolidin-4-ylidenemethyl]furan-2-yl}benzoic acid], for which the “NGF Activity % Maximal Binding” value in test [1] was “* (50 < *)”. Besides, the activity at 50 µM in test [2] (setting [3]) was greater than 50%.

Take `O=C1NC(=Cc2ccc(-c3ccc(Cl)c([N+](=O)[O-])c3)o2)C(=O)N1c1ccccc1` [Compound 127, 5-[5-(4-Chloro-3-nitrophenyl)furan-2-ylmethylene]-3-phenyl-imidazolidine-2,4-dione]: the “NGF Activity % Maximal Binding” value in test [1] is recorded as “* (50 < *)”. For the same molecule, in test [2] (setting [3]), the activity at 50 µM was greater than 50%.

For the molecule `COC(=O)c1ccc(-c2ccc(/C=C3/NC(=O)N(c4cccc(Cl)c4)C3=O)o2)cc1` [Compound 128, 4-{5-[1-(3-Chlorophenyl)-2,5-dioxo-imidazolidin-4-ylidenemethyl]furan-2-yl}benzoic acid methyl ester], the “NGF Activity % Maximal Binding” value in test [1] is reported as “* (50 < *)”. Moreover, the activity at 50 µM in test [2] (setting [3]) is greater than 50%.

On to `Cc1ccc(-c2ccc(/C=C3/NC(=O)N(Cc4ccccc4F)C3=O)o2)cc1[N+](=O)[O-]` [Compound 129, 3-(2-Fluorobenzyl)-5-[5-(4-methyl-3-nitrophenyl)furan-2-ylmethylene]-imidazolidine-2,4-dione], for which the “NGF Activity % Maximal Binding” value in test [1] is listed as “* (50 < *)”. Besides, the activity at 50 µM in test [2] (setting [3]) was greater than 50%.

`Cc1c(C(=O)O)cccc1-c1ccc(/C=C2/NC(=O)N(c3cccc(Cl)c3)C2=O)o1` [Compound 130, 3-{5-[1-(3-Chlorophenyl)-2,5-dioxo-imidazolidin-4-ylidenemethyl]furan-2-yl}-2-methylbenzoic acid]: in test [1], the “NGF Activity % Maximal Binding” value was “* (50 < *)”. Moreover, the activity at 50 µM in test [2] (setting [3]) was greater than 50%.

In the case of `Cc1cc([N+](=O)[O-])ccc1-c1ccc(/C=C2\NC(=O)N(Cc3ccccc3F)C2=O)o1` [Compound 131, 3-(2-Fluorobenzyl)-5-[5-(2-methyl-4-nitrophenyl)furan-2-ylmethylene]-imidazolidine-2,4-dione], in test [1], the “NGF Activity % Maximal Binding” value is “* (50 < *)”. Moreover, the activity at 50 µM in test [2] (setting [3]) was greater than 50%.

Regarding `CCOC(=O)CN1C(=O)S/C(=C/c2ccc(-c3ccc([N+](=O)[O-])cc3Cl)o2)C1=O` [Compound 132, {5-[5-(2-Chloro-4-nitrophenyl)furan-2-ylmethylene]-2,4-dioxo-thiazolidin-3-yl}-acetic acid ethyl ester], the “NGF Activity % Maximal Binding” value in test [1] was “* (50 < *)”. In addition, the activity at 50 µM in test [2] (setting [3]) was greater than 50%.

Take `COc1cc([N+](=O)[O-])ccc1-c1ccc(/C=C2/NC(=O)N(Cc3ccccc3F)C2=O)o1` [Compound 133, 3-(2-Fluorobenzyl)-5-[5-(2-methoxy-4-nitrophenyl)furan-2-ylmethylene]-imidazolidine-2,4-dione]: the “NGF Activity % Maximal Binding” value in test [1] is “* (50 < *)”. The activity at 50 µM in test [2] (setting [3]) is greater than 50%.

As to `Cc1cccc(N2NC(=O)C(=Cc3ccc(-c4ccc(Cl)c(C(=O)O)c4)o3)C2=O)c1` [Compound 134, 2-Chloro-5-[5-(3,5-dioxo-1-m-tolyl-pyrazolidin-4-ylidenemethyl)furan-2-yl]benzoic acid], the “NGF Activity % Maximal Binding” value in test [1] is on record as “* (50 < *)”. Moreover, the activity at 50 µM in test [2] (setting [3]) was greater than 50%.

As to `COC(=O)c1ccc(-c2ccc(/C=C3/NC(=O)N(c4cccc(Cl)c4)C3=O)o2)c(C)c1` [Compound 135, 4-{5-[1-(3-Chlorophenyl)-2,5-dioxo-imidazolidin-4-ylidenemethyl]furan-2-yl}-3-methylbenzoic acid methyl ester], the “NGF Activity % Maximal Binding” value in test [1] was “* (50 < *)”. The activity at 50 µM in test [2] (setting [3]) is greater than 50%.

As to `O=C(O)c1ccc(-c2ccc(/C=C3/NC(=O)N(Cc4ccccc4F)C3=O)o2)cc1` [Compound 136, 4-{5-[1-(2-Fluorobenzyl)-2,5-dioxo-imidazolidin-4-ylidenemethyl]furan-2-yl}benzoic acid], the “NGF Activity % Maximal Binding” value in test [1] is “* (50 < *)”. Moreover, the activity at 50 µM in test [2] (setting [3]) is greater than 50%.

Regarding `COc1cc([N+](=O)[O-])ccc1-c1ccc(/C=C2/NC(=O)N(c3cccc(Cl)c3)C2=O)o1` [Compound 137, 3-(3-Chlorophenyl)-5-[5-(2-methoxy-4-nitrophenyl)furan-2-ylmethylene]-imidazolidine-2,4-dione], the “NGF Activity % Maximal Binding” value in test [1] was “* (50 < *)”. Further, the activity at 50 µM in test [2] (setting [3]) is greater than 50%.

Turning to `COc1cc([N+](=O)[O-])ccc1-c1ccc(C=C2C(=O)NN(c3cccc(C)c3)C2=O)o1` [Compound 138, 4-[5-(2-Methoxy-4-nitrophenyl)furan-2-ylmethylene]-1-m-tolyl-pyrazolidine-3,5-dione], the “NGF Activity % Maximal Binding” value in test [1] is reported as “* (50 < *)”. For the same molecule, the activity at 50 µM in test [2] (setting [3]) is greater than 50%.

On to `COC(=O)c1cccc(-c2ccc(/C=C3/NC(=O)N(Cc4ccccc4F)C3=O)o2)c1C` [Compound 139, 3-{5-[1-(2-Fluorobenzyl)-2,5-dioxo-imidazolidin-4-ylidenemethyl]furan-2-yl}-2-methylbenzoic acid methyl ester], for which the “NGF Activity % Maximal Binding” value in test [1] is recorded as “* (50 < *)”. The activity at 50 µM in test [2] (setting [3]) is greater than 50%.

For the molecule `Cc1cccc(N2NC(=O)C(=Cc3ccc(-c4cccc([N+](=O)[O-])c4)o3)C2=O)c1` [Compound 140, 4-[5-(3-Nitrophenyl)furan-2-ylmethylene]-1-m-tolyl-pyrazolidine-3,5-dione], the “NGF Activity % Maximal Binding” value in test [1] is “* (50 < *)”. In test [2] (setting [3]), the activity at 50 µM was greater than 50%.

Regarding `COC(=O)CN1C(=S)N(C)C(=O)/C1=C/c1ccc(-c2ccc([N+](=O)[O-])cc2)o1` [Compound 141, {3-Methyl-5-[5-(4-nitrophenyl)furan-2-ylmethylene]-4-oxo-2-thioxo-imidazolidin-1-yl}-acetic acid methyl ester], in test [1], the “NGF Activity % Maximal Binding” value is reported as “* (50 < *)”. For the same molecule, the activity at 50 µM in test [2] (setting [3]) was greater than 50%.

Take `O=C1C(=Cc2ccc(-c3ccc([N+](=O)[O-])cc3)o2)SC(=S)N1c1ccc(O)cc1` [Compound 142, 3-(4-Hydroxyphenyl)-5-[5-(4-nitrophenyl)furan-2-ylmethylene]-2-thioxo-thiazolidin-4-one]: the “NGF Activity % Maximal Binding” value in test [1] is on record as “* (50 < *)”. For the same molecule, in test [2] (setting [3]), the activity at 50 µM was greater than 50%.

Take `O=C1C(=Cc2ccc(-c3cccc([N+](=O)[O-])c3)o2)SC(=S)N1CCS(=O)(=O)O` [Compound 143, 2-{5-[5-(3-Nitrophenyl)furan-2-ylmethylene]-4-oxo-2-thioxo-thiazolidin-3-yl}-ethanesulfonic acid]: the “NGF Activity % Maximal Binding” value in test [1] is reported as “* (50 < *)”. In test [2] (setting [3]), the activity at 50 µM was greater than 50%.
